These results are taken from publication PMC10889512, “Pyrimidine Schiff Bases: Synthesis, Structural Characterization and Recent Studies on Biological Activities” (International Journal of Molecular Sciences, 2024).

As usually defined, the IC50 is the concentration that inhibits the measured activity by half. A low value points to greater potency in that assay.

The test system of one assay is A172. The assay can be described thus: Microscopic observations, Hoechst 33342 stain, A172. It counts as cell-based, human. The following applies: A172, at IC50, 24, 48 and 72 h. How it is done:
In order to obtain information about cells and nuclei morphology, fluorescence microscopy was used. Briefly, after the incubation of A172 and AGS with compound 4b (at three time periods, namely 24, 48, and 72 h) cells were stained with Hoechst 33342 dye, which binds to DNA. Phase-contrast observations were also performed. […] Also, the cell membrane should be intact with a visible halo around the cells. In necrotic cells, the nuclei edges tend to be less clearly defined, and Hoechst 33342 results in a decreased fluorescence signal. This effect can be seen in a1,2 (A172) and b1,2 (AGS). […] To visualize morphological changes which occurred in the treated cells, microscopic observations were conducted using Hoechst 33342 stain. It is a blue fluorescent stain which allows observations of nuclei in eukaryotic cells. Also observations in bright fields were performed. Cells were stained according to the manufacturer’s protocol. Briefly, cells were plated in 12-well plates at a density of 1 × 10^5 cells/well and were incubated for 24 h at 37 °C, 5% CO2 in a humidified atmosphere. Next, cells were treated with 4b at an IC50 and further incubated for 24, 48, and 72 h. For microscopic observations cells were collected, washed with PBS and stained for 15 min with 1 µg/mL Hoechst 33342 dye. […]

A further assay deals with E. faecalis 29212. The assay can be described thus: Antimicrobial activity assay, microdilution. The class given is cell-based, Enterococcus faecalis. Particulars: concentration range from 0.5 µg/mL to 256 µg/mL. How it is done:
(§1) In vitro antimicrobial and antifungal activity was screened using microdilution and modified Richard’s medium. The assay was performed for compounds 4a, 4b, 4c, and 4d with seven reference microbial strains from ATTC (E. coli 25922, S. aureus 43300, K. pneumoniae 700603, A. baumannii 19606, P. aeruginosa 27853, E. faecalis 29212, and C. albicans 10231).
(§2) Seven reference strains from the ATCC collection (Escherichia coli 25922, Staphylococcus aureus 43300, Klebsiella pneumoniae 13883, Acinetobacter baumannii 19606, Pseudomonas aeruginosa 27853, Enterococcus faecalis 29212, and Candida albicans 10231) were used. The assay was performed according to a modified version of Richard et al.’s protocol and ISO standards 20776-1:2019 and 16256:2021 [78, 79]. Microdilution with spectrophotometric measurement was used to calculate MIC50 (minimal inhibitory concentration which decreased the microorganisms’ viability to 50%) values. Briefly, compounds were prepared 100× concentrated in DMSO, and during the whole experiment, they were diluted to 1× with TSB. Serial dilutions of tested compounds were made directly on plates at a concentration range of 0.5 to 256 µg/mL. Microorganisms were incubated for 24 h at 37 °C (bacteria) or 25 °C (yeast) on Petri dishes with TSA. The bacteria/yeast suspensions were prepared at a density 5 × 10^5 CFU/mL (for bacteria) or 0.5–2.5 × 10^5 CFU/mL (for yeast) with TSB. Also, appropriate controls were contained in the experiment: the positive control consisted of a specific strain in TSB, and the negative control was TSB alone. To ensure that used strains were not modified and were still responding to antibacterial/antifungal compounds established by EUCAST, additional tests were conducted with levofloxacin, gentamicin, and amphotericin B. Microplates were incubated on a shaker for 24 h at 37 ± 1 °C or 25 ± 1 °C for the bacteria and yeast strains, respectively. After the incubation, spectrophotometric measurement was performed at 580 nm. MIC50 was calculated by comparing the results obtained for experimental sets with positive controls. Next, 50 µL aliquots of 1% (m/v) TTC solution were added to each well. The plates were incubated on the shaker for 24 h at 37/25 °C. In living microbial cells, colourless TTC is converted into red formazan crystals, which allows for visual observation and MBC/MFC (minimal bactericidal/fungicidal concentration) value assessment.
In general terms: In broth dilution the organism is exposed to a series of concentrations in liquid medium.

Another assay concerns E. coli 25922. Description: Antimicrobial activity assay, microdilution. Particulars: concentration range from 0.5 µg/mL to 256 µg/mL. It counts as cell-based, Escherichia coli. As for the experimental part:
as §1, §2

The next assay concerns AGS. Description: Neutral red uptake assay on AGS. The class given is cell-based, human. The following applies: 72 h treatment. How it is done:
Based on the results obtained for the RPTEC cell line, the following concentrations of 4b–d were chosen to be applied to neoplastic cell lines: 0.1, 1, 10, 25, 50, and 100 µM. A172, AGS, CaCo-2, HeLa, and HepG2 cancer cell lines were used to perform a neutral red uptake assay. The obtained results were compared with a negative control (cell lines incubated without tested compounds), and half-maximal inhibitory concentration (IC50) values were calculated. Cell lines were plated in 96-well plates at a density of 1 × 10^4 cells/well. After 24 h incubation, which allowed the cells to attach and start to proliferate, the culture media were replaced with 4a–d dissolved in the appropriate medium at concentrations of 1, 10, 50, 100, 150 and 200 µM. […] Negative (1% DMSO in medium) and positive (1 µM staurosporine) controls were also included. Plates were incubated at 37 °C for 24, 48, and 72 h before the neutral red uptake assay. The neutral red uptake assay was performed as described by Repetto et al.. Briefly, the medium from all wells was discarded, the attached cells were washed with 100 µL PBS, and then 100 µL of neutral red working solution in medium (40 µg/mL) was added to each well. The neutral red solution was incubated overnight in the same conditions as the cells and centrifuged before being added to the cells. The plates were incubated for at least 2 h at 37 °C, 5% CO2, in a humidified atmosphere. Next, the neutral red medium was removed, and the cells were washed with 100 µL PBS. A 100 µL quantity of destain solution consisting of 50% ethanol, 1% glacial acetic acid, and deionized water was added to each well. Plates were incubated for 30 min with constant shaking on a horizontal shaker at 37 °C. Absorption was measured at 540 nm excitation. The cells’ viability was calculated by comparing results from experimental sets with negative controls according to the formula: % viability=ODtest substance−ODblind/ODnegative control−ODblind×100

On to `Cc1nc(-c2ccccc2)nc(Nc2ccc(F)cc2)c1C=Nc1cccc(Cl)c1` [compound 4b, 5-{[(3-chlorophenyl)imino]methyl}-N-(4-fluorophenyl)-6-methyl-2-phenylpyrimidin-4-amine], for which, in the assay on A172, the “cell and nuclei morphology” value was “leads to necrosis”. Further, the “MIC and MBC/MFC activity” value in the assay with E. faecalis 29212 and with E. coli 25922 was “Neither MIC nor MBC/MFC activity was observed” in each case. Further, the IC50 in the assay with AGS amounted to 32.2 µM; with AGS (Homo sapiens, 72 h), 32.2 µM.
